Test [1] relates to isolated carbachol contracted rat bladder strips. As to the kind of experiment: Relaxation of isolated carbachol contracted rat bladder strips. Particulars: for effect on retigabine-induced relaxation of bladder strips: M-current blockers added after retigabine. How it is done:
(§1) Using quantitative rtPCR, the expression of KCNQ1, KCNQ3 and KCNQ5 potassium channels was identified in the rat urinary bladder. […] To further probe M-current activity in the bladder, retigabine (10 μM, M-current agonist) was tested in isolated bladder smooth muscle cells using standard patch-clamp techniques. […] This hyperpolarization was reversed by the addition of linopirdine (50 μM an M-current antagonist) to the tissue bath. […] This relaxation was reversed by the M-current blockers linopirdine and XE-991.

For test [2], the system named is isolated precontracted guinea pig ileum. Nature of the test: Isolated precontracted guinea pig ileum preparations in tissue bath. As for the experimental part:
Following the procedures of the previous example, the effects of retigabine on isolated precontracted guinea pig ileum preparations were studied. Sections of ileum were isolated from male guinea pigs and suspended in a tissue bath. One end of the tissue was anchored to the bottom of the bath, and the other end to a force transducer. Tissues were contracted with either 20 mM KCl or 200 nM carbachol. The KCNQ channel agonist retigabine was added to the tissue baths in increasing concentrations.

Test [3] has as its system isolated bladder smooth muscle cells. As to the kind of experiment: Patch-clamp of isolated bladder smooth muscle cells (M-current activity). Format: cell-based, rat. As for the experimental part:
as §1

The target in test [4] is T1, KCNQ2/3 potassium channels (Homo sapiens, UniProt O43525+O43526).
T1 construct: host or cells: oocytes (heterologous expression, as described in the cited article)
T1 sequence (O43526 whole entry): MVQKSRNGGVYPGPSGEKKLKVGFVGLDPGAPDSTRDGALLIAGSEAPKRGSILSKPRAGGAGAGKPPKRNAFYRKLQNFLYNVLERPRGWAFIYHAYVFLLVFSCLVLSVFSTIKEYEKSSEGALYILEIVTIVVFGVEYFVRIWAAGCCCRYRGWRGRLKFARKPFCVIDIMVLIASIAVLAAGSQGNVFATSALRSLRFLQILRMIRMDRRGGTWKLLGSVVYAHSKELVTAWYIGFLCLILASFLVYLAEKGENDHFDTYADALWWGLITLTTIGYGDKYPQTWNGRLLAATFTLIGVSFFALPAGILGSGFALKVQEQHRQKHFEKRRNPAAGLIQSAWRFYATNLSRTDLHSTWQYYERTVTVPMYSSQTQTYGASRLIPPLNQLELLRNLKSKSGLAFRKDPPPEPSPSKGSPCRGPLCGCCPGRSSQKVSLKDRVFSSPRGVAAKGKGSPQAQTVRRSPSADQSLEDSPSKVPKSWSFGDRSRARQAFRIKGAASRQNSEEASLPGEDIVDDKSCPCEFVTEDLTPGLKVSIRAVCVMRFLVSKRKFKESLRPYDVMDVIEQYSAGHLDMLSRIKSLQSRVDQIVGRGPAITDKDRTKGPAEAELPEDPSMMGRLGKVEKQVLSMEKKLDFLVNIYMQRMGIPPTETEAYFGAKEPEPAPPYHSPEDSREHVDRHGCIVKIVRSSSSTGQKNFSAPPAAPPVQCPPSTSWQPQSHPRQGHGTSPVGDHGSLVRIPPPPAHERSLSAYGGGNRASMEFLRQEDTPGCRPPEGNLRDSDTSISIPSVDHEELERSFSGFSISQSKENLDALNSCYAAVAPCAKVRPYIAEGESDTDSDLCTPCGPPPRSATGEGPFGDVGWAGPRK
T1 sequence (O43525 whole entry): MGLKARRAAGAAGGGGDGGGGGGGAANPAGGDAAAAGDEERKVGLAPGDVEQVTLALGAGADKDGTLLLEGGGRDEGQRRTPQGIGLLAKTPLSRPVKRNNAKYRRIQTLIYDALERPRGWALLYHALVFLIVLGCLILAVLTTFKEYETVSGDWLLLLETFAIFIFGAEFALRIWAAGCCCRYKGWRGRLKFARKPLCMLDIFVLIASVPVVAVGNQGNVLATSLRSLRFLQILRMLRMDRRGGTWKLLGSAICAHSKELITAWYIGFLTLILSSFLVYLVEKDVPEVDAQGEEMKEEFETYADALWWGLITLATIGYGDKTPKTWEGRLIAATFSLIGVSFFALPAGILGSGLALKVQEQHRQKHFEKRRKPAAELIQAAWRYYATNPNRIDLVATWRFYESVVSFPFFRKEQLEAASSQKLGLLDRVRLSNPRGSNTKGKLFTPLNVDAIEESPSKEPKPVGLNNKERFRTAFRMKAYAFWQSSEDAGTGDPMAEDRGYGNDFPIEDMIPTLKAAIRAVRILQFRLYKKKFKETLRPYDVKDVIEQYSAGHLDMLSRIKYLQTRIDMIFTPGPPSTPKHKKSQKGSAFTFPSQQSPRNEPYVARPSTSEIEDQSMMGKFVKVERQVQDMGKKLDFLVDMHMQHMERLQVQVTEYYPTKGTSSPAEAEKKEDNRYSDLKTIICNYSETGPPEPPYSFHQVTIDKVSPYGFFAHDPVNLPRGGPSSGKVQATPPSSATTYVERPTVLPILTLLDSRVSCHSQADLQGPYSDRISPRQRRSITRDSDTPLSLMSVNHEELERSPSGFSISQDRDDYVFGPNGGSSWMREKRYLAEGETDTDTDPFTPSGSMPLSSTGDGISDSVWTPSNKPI
Particulars: oocytes; cited from earlier work.

As for `O=C1c2ccccc2C(Cc2ccncc2)(Cc2ccncc2)c2ccccc21` [XE-991], the “effect on retigabine-induced relaxation of bladder strips” value in test [1] is “reversed”. Also, the “effect on responses to retigabine in ileum” value in test [2] (both KCl and carbachol contracted tissues) was “antagonized”.
Consider `O=C1N(c2ccccc2)c2ccccc2C1(Cc1ccncc1)Cc1ccncc1` [linopirdine], for which the “effect on retigabine-induced relaxation of bladder strips” value in test [1] is reported as “reversed”. Moreover, the “effect on retigabine-induced hyperpolarization” value in test [3] (linopirdine 50 μM added to the tissue bath) is given as “reversed”.
On to `CCOC(=O)Nc1ccc(NCc2ccc(F)cc2)cc1N` [retigabine, N-[2-amino-4-(4-fluorobenzylamino)-phenyl]carbamic acid ethyl ester], for which the IC50 in test [1] (Rattus norvegicus, read-out: IC50 of relaxation of carbachol contracted bladder strips) was determined as 3.5 ± 0.9 µM. For the same compound, the “inhibition of contraction of ileum” value in test [2] (tissues contracted with 20 mM KCl or 200 nM carbachol, increasing concentrations) is listed as “concentration-dependent inhibition of contraction”. In test [4], the channel deactivation entry was “slows channel deactivation”, the “rate of channel activation” value is on record as “increases the rate of channel activation” and the “voltage dependence of channel activation” value was “shifts the voltage dependence of channel activation to more hyperpolarized membrane potentials”. Moreover, the membrane hyperpolarization in test [3] (retigabine 10 μM, n=5) is recorded as 17.8±3.0 mV. For the same compound, in test [3] (retigabine 10 μM, standard patch-clamp), the “outward current insensitive to iberiotoxin” value is “significantly increased”.

(Values after patent US7015242B2, “Methods for treating hyperactive gastrointestinal motility” (Wyeth, priority 2001, dated 2006).)
